How the values were obtained:
[1] = cited from earlier work
[2] = Determination of the HLB value; format: physicochemical; conditions: 5% strength dispersion/solution in water, visual comparison with emulsifiers of known HLB
Description: The HLB value is determined by preparing a 5% strength dispersion/solution of the substance to be tested, here the hydrophilic emollient, in water, and determining the solubility in water. The assessment takes place visually: clouding, solubility, degree of dispersion. The HLB value is ascertained through comparison with solutions of emulsifiers whose HLB value is known.

| Substance | HLB value according to manufacturer [1] | HLB value (ascertained) [2] |
| --- | --- | --- |
| PEG-7 glyceryl cocoate [Glycerox HE] | HLB: 11 |  |
| polyglyceryl-3 caprate [TEGOSOFT PC 31] |  | HLB: 14 |
| polyglyceryl-4 caprate [TEGOSOFT PC 41] |  | HLB: 16 |

Source: patent US8283299B2, “Skin and hand cleaning compositions with hydrophilic emollients” (Evonik Stockhausen GmbH, priority 2007, dated 2012)
